In series [1] the target is 5-hydroxytryptamine receptor 2A (Homo sapiens, UniProt P28223). Briefly: biochemical.
Description: Displacement of [125I]DOI from human recombinant 5HT2A receptor expressed in HEK293 cells after 1 hr by scintillation counting
The test system of series [2] is Rattus norvegicus. Briefly: Inhibition of DOI-induced hypolocomotion in Sprague-Dawley rat at 3 mg/kg, po administered 25 mins before DOI challenge measured after 10 mins. In kind it is functional.
Series [3] concerns the target T1, 5-hydroxytryptamine receptor 2C (Homo sapiens, UniProt P28335).
T1 sequence (P28335 whole entry): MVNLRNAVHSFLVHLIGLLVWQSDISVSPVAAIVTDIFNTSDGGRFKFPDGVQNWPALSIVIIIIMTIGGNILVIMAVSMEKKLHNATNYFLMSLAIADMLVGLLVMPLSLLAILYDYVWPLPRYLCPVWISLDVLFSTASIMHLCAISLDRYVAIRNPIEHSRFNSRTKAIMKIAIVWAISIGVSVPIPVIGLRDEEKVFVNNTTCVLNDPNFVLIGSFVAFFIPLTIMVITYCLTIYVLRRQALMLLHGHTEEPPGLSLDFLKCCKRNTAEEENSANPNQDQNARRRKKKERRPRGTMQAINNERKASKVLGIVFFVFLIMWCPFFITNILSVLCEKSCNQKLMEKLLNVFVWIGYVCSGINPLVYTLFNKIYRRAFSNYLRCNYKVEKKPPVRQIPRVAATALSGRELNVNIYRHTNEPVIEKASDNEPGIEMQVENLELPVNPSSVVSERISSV
In kind it is cell-based, HEK293.

Series [4] is described as follows: Half life in Sprague-Dawley rat at 10 mg/kg, po. In kind it is ADME, organism-based. The note with it: in vivo. On the set-up: dose 10 mg/kg, route oral.
Series [5] in a line: Half life in rat liver microsomes. In kind it is ADME, Microsome.
Series [6] is described as follows: Ratio of drug level in brain to plasma in Sprague-Dawley rat at 3 mg/kg, po after 0.75 hrs. In kind it is ADME, organism-based. The arrangement: dose 3 mg/kg, route oral.
For series [7], the system named is Rattus norvegicus. The series is described as follows: Inhibition of DOI-induced hypolocomotion in po dosed Sprague-Dawley rat administered 25 mins before DOI challenge measured after 10 mins. In kind it is functional, organism-based.
Series [8] concerns Rattus norvegicus. Briefly: Volume of distribution at steady state in Sprague-Dawley rat at 10 mg/kg, po. In kind it is ADME, organism-based. On the set-up: dose 10 mg/kg, route oral. To be noted: in vivo.
The next series deals with hERG (KCNH2) (Homo sapiens, UniProt Q12809). The series is described as follows: Inhibition of human ERG at 3 uM by patch clamp electrophysiology assay.
Chain of hERG (KCNH2) (Q12809 whole entry): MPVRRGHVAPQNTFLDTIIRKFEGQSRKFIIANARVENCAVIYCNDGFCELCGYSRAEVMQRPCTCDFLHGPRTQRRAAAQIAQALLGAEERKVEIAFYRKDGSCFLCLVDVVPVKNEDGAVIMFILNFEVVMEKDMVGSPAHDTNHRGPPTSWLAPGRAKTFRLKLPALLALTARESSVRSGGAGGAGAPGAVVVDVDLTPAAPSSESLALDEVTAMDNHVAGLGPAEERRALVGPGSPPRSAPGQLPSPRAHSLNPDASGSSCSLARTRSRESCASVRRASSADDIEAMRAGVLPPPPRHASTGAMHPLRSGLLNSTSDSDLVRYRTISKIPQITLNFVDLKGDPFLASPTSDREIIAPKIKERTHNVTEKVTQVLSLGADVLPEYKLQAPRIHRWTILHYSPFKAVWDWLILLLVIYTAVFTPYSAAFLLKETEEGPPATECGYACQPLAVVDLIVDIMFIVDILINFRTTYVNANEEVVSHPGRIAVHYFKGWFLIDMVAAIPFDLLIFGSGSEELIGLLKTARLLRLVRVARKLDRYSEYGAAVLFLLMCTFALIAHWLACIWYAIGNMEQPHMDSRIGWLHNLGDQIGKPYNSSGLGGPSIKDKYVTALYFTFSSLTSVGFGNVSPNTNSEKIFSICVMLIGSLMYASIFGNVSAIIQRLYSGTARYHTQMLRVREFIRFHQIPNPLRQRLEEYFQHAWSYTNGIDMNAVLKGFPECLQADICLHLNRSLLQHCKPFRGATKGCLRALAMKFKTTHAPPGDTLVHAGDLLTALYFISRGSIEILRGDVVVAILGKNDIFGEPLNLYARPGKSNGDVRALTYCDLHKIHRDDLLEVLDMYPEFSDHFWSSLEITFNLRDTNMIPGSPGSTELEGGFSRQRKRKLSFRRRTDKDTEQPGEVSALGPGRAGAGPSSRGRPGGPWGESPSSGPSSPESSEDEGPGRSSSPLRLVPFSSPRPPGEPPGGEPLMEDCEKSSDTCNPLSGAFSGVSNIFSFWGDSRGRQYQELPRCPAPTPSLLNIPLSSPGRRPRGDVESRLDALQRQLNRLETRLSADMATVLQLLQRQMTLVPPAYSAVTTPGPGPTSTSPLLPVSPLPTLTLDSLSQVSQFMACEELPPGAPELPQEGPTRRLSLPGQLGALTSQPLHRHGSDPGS
Series [9] is described as follows: Cmax in Sprague-Dawley rat at 10 mg/kg, po. In kind it is ADME, organism-based. The arrangement: dose 10 mg/kg, route oral. The note with it: in vivo.
The nature of series [10]: Oral bioavailability in Sprague-Dawley rat at 10 mg/kg relative to 2 mg/kg, iv dose. In kind it is ADME, organism-based. The note with it: in vivo.
Series [11] in a line: Drug level in Sprague-Dawley rat plasma at 3 mg/kg, po after 0.75 hrs. The note with it: read-out: Drug uptake. In kind it is ADME, organism-based. The arrangement: dose 3 mg/kg, route oral.
A short description of series [12]: Drug level in Sprague-Dawley rat brain at 3 mg/kg, po after 0.75 hrs. In kind it is ADME, organism-based. On the set-up: dose 3 mg/kg, route oral. The note with it: read-out: Drug uptake.
In series [13] the test system is Rattus norvegicus. Briefly: Hepatic blood flow in Sprague-Dawley rat at 10 mg/kg, po. The note with it: in vivo. On the set-up: dose 10 mg/kg, route oral. It is filed as ADME, organism-based, Liver.
A short description of series [14]: AUClast in Sprague-Dawley rat at 10 mg/kg, po. The arrangement: time 0 - last, dose 10 mg/kg, route oral. The note with it: plasma. It is filed as ADME, organism-based.
Series [15] is described as follows: Total clearance in Sprague-Dawley rat at 2 mg/kg, iv. In kind it is ADME, organism-based. On the set-up: dose 2 mg/kg, route intravenous. The note with it: in vivo.

Chain of 5-hydroxytryptamine receptor 2A (P28223 whole entry): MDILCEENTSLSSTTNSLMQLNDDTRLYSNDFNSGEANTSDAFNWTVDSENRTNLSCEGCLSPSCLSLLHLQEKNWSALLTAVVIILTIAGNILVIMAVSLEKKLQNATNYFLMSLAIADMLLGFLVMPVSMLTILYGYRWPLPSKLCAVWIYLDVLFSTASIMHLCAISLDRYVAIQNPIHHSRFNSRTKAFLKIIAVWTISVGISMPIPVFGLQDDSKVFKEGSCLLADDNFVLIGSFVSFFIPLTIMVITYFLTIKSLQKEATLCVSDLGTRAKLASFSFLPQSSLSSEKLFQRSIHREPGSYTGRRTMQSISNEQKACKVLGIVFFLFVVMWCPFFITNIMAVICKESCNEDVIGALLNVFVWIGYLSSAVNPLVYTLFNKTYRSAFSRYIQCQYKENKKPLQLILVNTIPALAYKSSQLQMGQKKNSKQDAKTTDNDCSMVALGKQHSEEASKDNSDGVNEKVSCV

In general, Ki refers to a dissociation constant, usually derived from enzyme kinetics or from competition with a known ligand. A higher Ki goes with weaker binding. The inhibition in vivo is the change of the read-out against control, counted positive when it falls. On to `CCn1cc(Cl)c(C(=O)N2CCN(CC(=O)c3ccc(F)cc3)CC2)n1`, for which the Ki in series [1] is 2.6 nM; in series [3], > 10000 nM. This compound registered an inhibition in vivo at 3 mg/kg in the series on Rattus norvegicus [2] of 54%.

By half-life is commonly meant the time in which the quantity being followed falls by half. High values mean slow decline, low ones rapid decline. As usually defined, the Kp is tissue or fluid exposure divided by exposure in the circulation. One may read the inhibition as the relative decrease from the control value, in per cent. For orientation: Cmax means the maximum level reached in the sampled fluid or tissue. In general, bioavailability refers to the share of a dose that reaches the circulation, judged against a reference dose that is usually intravenous. The low end stands for little systemic uptake, the high end for much systemic uptake. As a reminder, the AUC(0-t) is exposure summed from dosing to a finite time, without extrapolation to infinity. A lower AUC(0-t) goes with less exposure. One may read the clearance as a measure of how efficiently the substance is removed, as volume per time. Lower therefore signals a low capacity for elimination. For `Cn1cc(Br)c(C(=O)N2CCN(CCc3ccc(F)cc3)CC2)n1`, the results for the Ki in series [1] and in [3] were 3.6 nM and 4150 nM, respectively. Besides, the half-life in series [4] is 84 min; in series [5], 14 min. Besides, the Kp at 0.75 h in series [6] is 2.02. Moreover, the EC50 in the series with Rattus norvegicus [7] is 3 mg/kg. In the series with Rattus norvegicus [8], this compound came in with a Vdss of 8.1 L/kg. Further, at 3 µM the inhibition on hERG (KCNH2) was 79%. The same compound showed a Cmax in series [9] of 48 ng/mL. For the same compound, the bioavailability in series [10] came to 9%. Besides, the figures for the concentration at 0.75 h in series [11] and in series [12] were 8.3 ng/mL and 16.8 ng/mL, respectively. Also, the LBF in the series with Rattus norvegicus [13] stood at 220%. Also, the AUC(0-t) in series [14] stood at 91 ng·h/mL. In [15], this compound showed a clearance of 155 mL/min/kg.

Consider `COc1ccc(NC(=O)Nc2ccc(F)cc2F)cc1-c1c(Br)cnn1C` [NELOTANSERIN], for which the Ki in [1] is 0.51 nM; in series [3], 110 nM. For the same compound, in series [6], the Kp at 0.75 h was 0.65. Also, the concentration at 0.75 h in series [11] stood at 488 ng/mL; in [12], 320 ng/mL.

The values are drawn from ChEMBL document CHEMBL1212923, “Synthesis and in vivo evaluation of phenethylpiperazine amides: selective 5-hydroxytryptamine(2A) receptor antagonists for the treatment of insomnia” (J Med Chem, 2010).
